Earlier results, collected in paper PMC8542980, “The Scavenger Function of Liver Sinusoidal Endothelial Cells in Health and Disease” (Frontiers in Physiology, 2021).
Read-outs that look alike come from different tables or passages of the source.

Assays:
[1] = tested on: endocytic hyaluronan receptor
[2] = design: method as in Fraser et al., 1981; settings: rabbit, ref Fraser et al., 1981
[3] = design: method as in Fraser et al., 1984; settings: human, ref Fraser et al., 1984
[4] = ref Smedsrød et al., 1984, Laurent et al., 1986b
[5] = rat, 1 μg, tail vein, ref Smedsrød and Einarsson, 1990
[6] = rats, whole body autoradiography 10 min after injection, ref Fraser et al., 1985

heparin [listing 1 of 2 here]
affinity of the rat receptor [1, 4]: no affinity

heparin [listing 2 of 2 here]
Decay of plasma/blood radioactivity, t1/2 (rat, 0.1 IU/kg, tail vein, ref Øie et al., 2008): 1.71 min
recovered in liver (rat, after 15 min, ref Øie et al., 2008): 71%

Dextran sulfate
inhibition of the binding of hyaluronan by LSECs ([1]; ref Raja et al., 1988, McGary et al., 1989): can also inhibit

hyaluronan [hyaluronan of 6.4 × 10^6 Da]
Kd ([1]; endocytic hyaluronan receptor of LSECs, ref Laurent et al., 1986b, read-out: dissociation constant): 9 pM

heparan sulfate
affinity of the rat receptor [1, 4]: no affinity

^125I-tPA: 125I-labeled tissue plasminogen activator
% eliminated with t1/2α [5]: 65%
% eliminated with t1/2β [5]: 35%
Decay of plasma/blood radioactivity, t1/2α [5]: 0.6 min
Decay of plasma/blood radioactivity, t1/2β [5]: 6.4 min

hyaluronan
uptake in liver (rat, at 30 min after injection, ref Dahl et al., 1988): 79%
Decay of plasma/blood radioactivity, t1/2α (rat, tail vein, MW = 2.5 × 10^5, ref Dahl et al., 1988): 0.9 min

chondroitin sulfate
inhibition of the uptake and binding of hyaluronan by LSECs ([1]; ref Smedsrød et al., 1984): can inhibit
affinity of the rat receptor compared with hyaluronan of the same chain length [1, 4]: threefold greater affinity

C[C@@H]1C[C@@H]([C@H](O)CC2CC(=O)NC(=O)C2)C(=O)[C@@H](C)C1 [cycloheximide]
effect on the endocytosis of hyaluronan by cultured LSECs (LSECs; inhibitor of protein synthesis, ref McGary et al., 1989): no effect

hyaluronan [[^3H]-hyaluronan]
time to appearance of degradation products in the supernatant (LSECs; LSEC cultures, 37°C, after addition of ligand, ref Smedsrød et al. (1984)): ≤ 30 min
time to steady state levels of internalized ligand and degradation products (LSECs; LSEC cultures, 37°C, into the incubation, ref Smedsrød et al. (1984)): 60 to 75 min
Decay of plasma/blood radioactivity, t1/2 ([2]; 30–32 μg, marginal ear vein): 2.5 to 4.5 min
uptake in liver ([2]; at 19 min after injection): 88%
Decay of plasma/blood radioactivity, t1/2 ([3]; 60–130 μg, cubital vein): 2.6 to 5.5 min
eliminated from blood ([3]; after 10 min): 90%
injected radioactivity found in Kupffer cells [6]: none
injected radioactivity found in the cytoplasm of LSECs [6]: approximately 90%

chondroitin sulfate [[^3H]-chondroitin sulfate (CS)]
site of main uptake (rat, clearance rate not examined, ref Smedsrød et al., 1985b): Clearance rate not examined but the main uptake was in LSECs

B1: ^125I-TC-nidogen: nidogen labeled with 125I-tyramine cellobiose (protein, UniProt P14543 29-1247, looked up)
Nidogen-1: LSRQELFPFGPGQGDLELEDGDDFVSPALELSGALRFYDRSDIDAVYVTTNGIIATSEPPAKESHPGLFPPTFGAVAPFLADLDTTDGLGKVYYREDLSPSITQRAAECVHRGFPEISFQPSSAVVVTWESVAPYQGPSRDPDQKGKRNTFQAVLASSDSSSYAIFLYPEDGLQFHTTFSKKENNQVPAVVAFSQGSVGFLWKSNGAYNIFANDRESVENLAKSSNSGQQGVWVFEIGSPATTNGVVPADVILGTEDGAEYDDEDEDYDLATTRLGLEDVGTTPFSYKALRRGGADTYSVPSVLSPRRAATERPLGPPTERTRSFQLAVETFHQQHPQVIDVDEVEETGVVFSYNTDSRQTCANNRHQCSVHAECRDYATGFCCSCVAGYTGNGRQCVAEGSPQRVNGKVKGRIFVGSSQVPIVFENTDLHSYVVMNHGRSYTAISTIPETVGYSLLPLAPVGGIIGWMFAVEQDGFKNGFSITGGEFTRQAEVTFVGHPGNLVIKQRFSGIDEHGHLTIDTELEGRVPQIPFGSSVHIEPYTELYHYSTSVITSSSTREYTVTEPERDGASPSRIYTYQWRQTITFQECVHDDSRPALPSTQQLSVDSVFVLYNQEEKILRYALSNSIGPVREGSPDALQNPCYIGTHGCDTNAACRPGPRTQFTCECSIGFRGDGRTCYDIDECSEQPSVCGSHTICNNHPGTFRCECVEGYQFSDEGTCVAVVDQRPINYCETGLHNCDIPQRAQCIYTGGSSYTCSCLPGFSGDGQACQDVDECQPSRCHPDAFCYNTPGSFTCQCKPGYQGDGFRCVPGEVEKTRCQHEREHILGAAGATDPQRPIPPGLFVPECDAHGHYAPTQCHGSTGYCWCVDRDGREVEGTRTRPGMTPPCLSTVAPPIHQGPAVPTAVIPLPPGTHLLFAQTGKIERLPLEGNTMRKTEAKAFLHVPAKVIIGLAFDCVDKMVYWTDITEPSIGRASLHGGEPTTIIRQDLGSPEGIAVDHLGRNIFWTDSNLDRIEVAKLDGTQRRVLFETDLVNPRGIVTDSVRGNLYWTDWNRDNPKIETSYMDGTNRRILVQDDLGLPNGLTFDAFSSQLCWVDAGTNRAECLNPSQPSRRKALEGLQYPFAVTSYGKNLYFTDWKMNSVVALDLAISKETDAFQPHKQTRLYGITTALSQCPQGHNYCSVNNGGCTHLCLATPGSRTCRCPDNTLGVDCIEQK
modifications: 125I-tyramine cellobiose label
notes: nidogen labeled with 125I-tyramine cellobiose
recovered in liver (rat, after 1 h, ref Smedsrød et al., 1989): 78%
Decay of plasma/blood radioactivity, t1/2 (rat, trace amounts, tail vein, ref Smedsrød et al., 1989): 2 to 3 min
